# PubChem BioAssay (NCI)
#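 Dose response: 5 concentrations. Exposure: 48 h. Format: 96-well plates. Endpoint: linear interpolation; highest concentration if not reached. TGI: concentration producing complete growth inhibition.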 Where a SMILES comes first, the peptide text is derived from it. [ ]: non-standard residue; d: D form. The star is where a group is joined. NMeV = CN[C@H](C(=O)O)C(C)C; X29 = COc1ccc(CN*)c(OC)c1; Octanoyl = CCCCCCCC(=O)*; dNMeA = CN[C@H](C)C(=O)O
# Columns and labels:
# Assay in all cases: NCI tumour cell line growth inhibition, 48 h
# CAKI-1 renal = system: CAKI-1 renal
# COLO 205 colon = system: COLO 205 colon
# EKVX NSCLC = system: EKVX NSCLC
# HCT-15 colon = system: HCT-15 colon
# HT29 colon = system: HT29 colon
# LOX IMVI melanoma = system: LOX IMVI melanoma
# M14 melanoma = system: M14 melanoma
# MALME-3M melanoma = system: MALME-3M melanoma
# NCI-H226 lung = system: NCI-H226 lung
# PC-3 prostate = system: PC-3 prostate
# RXF 393 renal = system: RXF 393 renal
# SK-MEL-28 melanoma = system: SK-MEL-28 melanoma
# SNB-19 CNS = system: SNB-19 CNS
# T-47D breast = system: T-47D breast
# TK-10 renal = system: TK-10 renal
# U251 CNS = system: U251 CNS
# UO-31 renal = system: UO-31 renal
# HOP-92 NSCLC = system: HOP-92 NSCLC
# IGROV1 ovarian = system: IGROV1 ovarian
SMILES,TGI (CAKI-1 renal),TGI (COLO 205 colon),TGI (EKVX NSCLC),TGI (HCT-15 colon),TGI (HT29 colon),TGI (LOX IMVI melanoma),TGI (M14 melanoma),TGI (MALME-3M melanoma),TGI (NCI-H226 lung),TGI (PC-3 prostate),TGI (RXF 393 renal),TGI (SK-MEL-28 melanoma),TGI (SNB-19 CNS),TGI (T-47D breast),TGI (TK-10 renal),TGI (U251 CNS),TGI (UO-31 renal),TGI (HOP-92 NSCLC),TGI (IGROV1 ovarian)
C=CCC1(OCc2ccccc2)C(=O)C(=O)OC1C1COC(C)(C)O1 (configuration not stated),> 100 µM,> 100 µM,> 100 µM,> 100 µM,> 100 µM,> 100 µM,> 100 µM,> 100 µM,> 100 µM,> 100 µM,> 100 µM,> 100 µM,> 100 µM,> 100 µM,> 100 µM,> 100 µM,> 100 µM,–,–
O=C1CCCN1C(=O)CS(=O)(=O)c1ccccc1,> 100 µM,> 100 µM,–,> 100 µM,> 100 µM,> 100 µM,> 100 µM,> 100 µM,> 100 µM,> 100 µM,> 100 µM,> 100 µM,> 100 µM,> 100 µM,> 100 µM,> 100 µM,> 100 µM,> 100 µM,> 100 µM
C=CCN1C(=O)/C(=C/c2cccs2)N=C1SC/C=C/C,> 100 µM,88.9 µM,> 100 µM,> 100 µM,> 100 µM,> 100 µM,> 100 µM,96.6 µM,> 100 µM,> 100 µM,85.2 µM,> 100 µM,> 100 µM,> 100 µM,> 100 µM,> 100 µM,> 100 µM,> 100 µM,> 100 µM
COCc1nc(N)nc(N2N=C(C)CC2(C)C)n1,> 100 µM,> 100 µM,> 100 µM,> 100 µM,> 100 µM,> 100 µM,> 100 µM,–,> 100 µM,> 100 µM,> 100 µM,> 100 µM,> 100 µM,> 100 µM,> 100 µM,> 100 µM,> 100 µM,> 100 µM,> 100 µM
CCCCCCCC(=O)N[C@H](C(=O)N[C@H](C(=O)N(C)[C@H](C(=O)N1CCC[C@H]1C(=O)N(C)[C@H](C)C(=O)NCc1ccc(OC)cc1OC)C(C)C)C(C)C)C(C)C (Octanoyl-VV[NMeV]P[dNMeA]-X29),> 86.3 µM,22.7 µM,97.3 µM,> 100 µM,> 85.2 µM,30.8 µM,> 68.1 µM,24.3 µM,27.5 µM,58.7 µM,46.1 µM,> 68.2 µM,> 100 µM,> 100 µM,> 100 µM,> 85.5 µM,> 100 µM,36.7 µM,32.8 µM
COc1cc2c3c(c1)CCCN3CCC2,> 10 µM,> 10 µM,> 10 µM,> 10 µM,> 10 µM,> 10 µM,> 10 µM,> 10 µM,> 10 µM,> 10 µM,> 10 µM,> 10 µM,> 10 µM,> 10 µM,> 10 µM,> 10 µM,> 10 µM,> 10 µM,> 10 µM
CC(=O)Nc1ccc(C(O)/C(=N/N)c2nc3ccc(Cl)cc3[nH]c2=O)cc1 (configuration not stated),> 100 µM,> 100 µM,> 100 µM,> 100 µM,> 100 µM,> 100 µM,> 100 µM,> 100 µM,> 100 µM,> 100 µM,> 100 µM,> 100 µM,> 100 µM,> 100 µM,> 100 µM,> 100 µM,> 100 µM,> 100 µM,> 100 µM
C[C@]12CC[C@@H]3c4cc(OCC(F)(F)F)c(O)cc4CC[C@H]3[C@@H]1CC[C@@H]2O,29.9 µM,28.2 µM,30.7 µM,15.2 µM,15.3 µM,17.1 µM,16.8 µM,19 µM,24.7 µM,13.8 µM,8.68 µM,26.2 µM,18.1 µM,49.5 µM,40.4 µM,18.3 µM,22.3 µM,21.8 µM,23.8 µM
CCOC(=O)C1=NOC2(C=C(Br)C(=O)C(Br)=C2)C1,2.88 µM,2.7 µM,5.45 µM,4.91 µM,4.68 µM,7.63 µM,3.29 µM,1.25 µM,52.9 µM,5.31 µM,3.54 µM,24.7 µM,40 µM,3.99 µM,2.27 µM,26.3 µM,2.51 µM,3.56 µM,20.6 µM
N#Cc1sc2c(c1OC(=O)c1ccccc1)c(=O)n(-c1ccccc1)c(=S)n2-c1ccccc1,> 100 µM,34.2 µM,68.6 µM,39.4 µM,> 100 µM,51.7 µM,40.6 µM,50 µM,40.8 µM,66.6 µM,32.7 µM,72.4 µM,> 100 µM,46.9 µM,> 100 µM,53.3 µM,35.6 µM,–,45.7 µM
CC1(C)C=Cc2c(cc(O)c3c(=O)c4cc(Cl)ccc4[nH]c23)O1,> 10 µM,> 10 µM,> 10 µM,> 10 µM,> 10 µM,8.11 µM,–,7.5 µM,–,7.12 µM,> 10 µM,> 10 µM,6.4 µM,> 10 µM,> 10 µM,> 10 µM,5.91 µM,7.79 µM,> 10 µM
O=c1[nH]cc(-c2c[nH]c3ccccc23)nc1-c1c[nH]c2ccccc12,24.6 µM,23.2 µM,24.6 µM,23.7 µM,–,27.5 µM,28.1 µM,24.1 µM,–,51.1 µM,10.3 µM,31.7 µM,34.6 µM,41.9 µM,30.5 µM,70.8 µM,29.8 µM,33.3 µM,14.6 µM
O=[N+]([O-])c1nccn1CCCNc1ccnc2cc(Cl)ccc12,> 7.83 µM,> 100 µM,> 100 µM,> 100 µM,99.6 µM,> 100 µM,> 100 µM,> 57.3 µM,10.8 µM,> 100 µM,> 23 µM,> 100 µM,> 64.2 µM,> 89.9 µM,> 11.7 µM,> 100 µM,> 88.4 µM,> 21 µM,> 100 µM
CC(C)(C)c1cc2c(OC/C=C/c3ccccc3)c(c1)Cc1cc(C(C#N)(OC/C=C/c3ccccc3)OC/C=C/c3ccccc3)cc(c1OC/C=C\c1ccccc1)Cc1cc(C(C)(C)C)cc(c1OC/C=C/c1ccccc1)Cc1cc(C(C#N)(OC/C=C\c3ccccc3)OC/C=C/c3ccccc3)cc(c1OC/C=C\c1ccccc1)C2 (configuration not stated),> 100 µM,> 100 µM,> 100 µM,> 100 µM,> 100 µM,> 100 µM,> 100 µM,> 100 µM,> 100 µM,> 100 µM,> 100 µM,> 100 µM,> 100 µM,> 100 µM,54.3 µM,> 100 µM,> 100 µM,> 100 µM,> 100 µM
O=S1(=O)OCCOS(=O)(=O)C1(F)Br,> 100 µM,> 100 µM,> 100 µM,> 100 µM,> 100 µM,> 100 µM,> 100 µM,> 100 µM,> 100 µM,> 100 µM,> 100 µM,> 100 µM,> 100 µM,> 100 µM,> 100 µM,> 100 µM,> 100 µM,–,–
CN(C)c1ccc(NN=C2SC(=Nc3ccccc3)C(=Nc3ccccc3)S2)cc1,> 100 µM,> 100 µM,> 100 µM,> 100 µM,> 100 µM,> 100 µM,–,> 100 µM,> 100 µM,> 100 µM,> 100 µM,> 100 µM,> 100 µM,> 100 µM,> 100 µM,> 100 µM,> 100 µM,> 100 µM,> 100 µM
CS(=O)(=O)OCC1CN(S(C)(=O)=O)c2cc(O)ccc21 (configuration not stated),14.2 µM,5.95 µM,16 µM,12.2 µM,11.1 µM,13.3 µM,–,4.35 µM,12.3 µM,5.62 µM,3.47 µM,11.6 µM,–,1.96 µM,6.62 µM,7.26 µM,11.1 µM,7.08 µM,22.4 µM
CC(=O)c1ccc2c(c1)CC1(C2)Cc2cc3c(cc2C1=O)CCC3 (configuration not stated),47 µM,31.2 µM,64.8 µM,95.9 µM,> 100 µM,40.6 µM,28.9 µM,39.3 µM,–,72.2 µM,90.4 µM,48.8 µM,> 100 µM,88.5 µM,71.3 µM,> 100 µM,63.5 µM,65.5 µM,59 µM
CC(C)(C)OC(=O)N/N=C(/N)Cc1ccc(Cl)cc1,> 100 µM,> 100 µM,> 100 µM,> 100 µM,> 100 µM,> 100 µM,> 100 µM,> 100 µM,> 100 µM,> 100 µM,> 100 µM,> 100 µM,> 100 µM,> 100 µM,> 100 µM,> 100 µM,> 100 µM,–,> 100 µM
COc1c(F)c(F)c(/C(O)=C\c2nc3ccccc3[nH]c2=O)c(F)c1F,> 10 µM,> 10 µM,> 10 µM,> 10 µM,> 10 µM,8.34 µM,> 10 µM,> 10 µM,–,> 10 µM,> 10 µM,> 10 µM,–,> 10 µM,> 10 µM,–,–,> 10 µM,> 10 µM
CNC(=O)C1(N)c2ccccc2C=Cc2ccccc21,> 100 µM,> 100 µM,> 100 µM,> 100 µM,> 100 µM,> 100 µM,> 100 µM,> 100 µM,> 100 µM,> 100 µM,–,> 100 µM,> 100 µM,> 100 µM,> 100 µM,> 100 µM,> 100 µM,> 100 µM,> 100 µM
O=C(O)C12C3CCC(CC3)C1(C(=O)O)C1CCC2C1 (configuration not stated),> 100 µM,> 100 µM,–,> 100 µM,> 100 µM,> 100 µM,> 100 µM,> 100 µM,> 100 µM,> 100 µM,> 100 µM,> 100 µM,> 100 µM,> 100 µM,> 100 µM,> 100 µM,> 100 µM,–,> 100 µM
O=C1OCC2OC(=O)c3cc(O)c(O)c(O)c3-c3c(O)c(O)c(O)c4c3C(=O)OC(C2OC(=O)c2cc(O)c(O)c(O)c2-c2c1cc(O)c(O)c2O)C1OC(=O)c2c-4c(O)c(O)c(O)c2[C@@H]1C(O)C(O)C(O)C(O)CO (some centres not stated),26.7 µM,30.4 µM,51.1 µM,37.7 µM,36 µM,6.04 µM,39.4 µM,38.9 µM,42.6 µM,42.7 µM,34.3 µM,> 100 µM,> 100 µM,45.2 µM,–,48.7 µM,33.8 µM,45.8 µM,40.6 µM
NC(N)=NCC[C@H](NC(=O)OCCCCCn1ccc(=O)[nH]c1=O)C(=O)O,> 100 µM,> 100 µM,> 100 µM,> 100 µM,> 100 µM,> 100 µM,–,> 100 µM,> 100 µM,> 100 µM,> 100 µM,> 100 µM,> 100 µM,> 100 µM,> 100 µM,> 100 µM,> 100 µM,> 100 µM,–
COC(=O)[C@@H]1[C@H](OC(C)=O)CCC2[C@@]3(C[C@@H](c4ccoc4)O[C@@H]3OC)[C@H](C)CC[C@]21C(=O)OC (some centres not stated),> 25 µM,> 25 µM,> 25 µM,> 25 µM,> 25 µM,> 25 µM,> 25 µM,–,> 25 µM,> 25 µM,> 25 µM,–,> 25 µM,> 25 µM,> 25 µM,> 25 µM,> 25 µM,> 25 µM,> 25 µM
